The source of these data is patent publication US20250316716A1, “ELECTROCHEMICAL OXYGEN REDUCTION CATALYST” (TOYOTA JIDOSHA KABUSHIKI KAISHA, priority 2024, published 2025).

Series [1] is described as follows: Alcohol solubility of the modifier. Conditions: organic solvent or mixture, alcohol (diacetone alcohol or ethanol). The class given is physicochemical.
Series [2] in a line: Water solubility of the modifier. The class given is physicochemical.

Where only a bound is given, the exact number is not on record here.

A word on the solubility: it is the dissolved amount per volume that the medium holds. Regarding `Nc1nc(N)nc(N)n1` [Melamine, melamine], the solubility in series [1] and in series [2] was at least 3000 µg/mL each time.

As for `NC1=NC2=NC(N)=NC3=NC(N)=NC(=N1)N23` [Melem, melem], the solubility in series [1] and in series [2] was under 3000 µg/mL throughout.
